{"source": "patent US12582605B2", "about": "“Extended release formulations of cannabinoids” (Glatt GmbH, priority 2018, dated 2026)", "key": {"[1]": {"assay": "Dissolution test, release of probucol (USP Type II paddle, purified water)", "type": "physicochemical", "details": "after / through 24 hours", "method": "(§1) A dissolution test was conducted on the compositions using purified water, USP, as the dissolution medium in a dissolution volume of 900 ml. A USP Type II paddle apparatus was used to mix the dissolution medium at a paddle speed of 75 rpm. The bath temperature was 37° C., and a 10-μm porous filter was used to sample aliquots.\nas §1, with “Example Compositions D-H” for “the compositions”"}, "[2]": {"details": "pH values ranging from 1.2 to 7.0; cited from earlier work"}, "[3]": {"details": "oral administration; cited from earlier work"}}, "data": [{"compound": "Tween® 80", "values": [{"measurement": "drug release (probucol)", "setting": "[1]", "value": 88, "unit": "% w/w"}]}, {"compound": "CCCCCCC(C)(C)c1cc(O)c2c(c1)OC(C)(C)C1CCC(=O)CC21", "note": "(stereo not shown) [nabilone]", "values": [{"measurement": "solubility in aqueous media", "setting": "[2]", "value": "less than 0.5 mg/L"}]}, {"compound": "CCCCCc1cc(O)c2c(c1)OC(C)(C)[C@@H]1CCC(C)=C[C@@H]21", "note": "[THC, Δ9-tetrahydrocannabinol]", "values": [{"measurement": "duration of action", "setting": "[3]", "value": "2 to 4", "unit": "h"}, {"measurement": "duration of psychoactive action", "setting": "[3]", "value": "4 to 6", "unit": "h"}]}]}
